Where “and” joins values, the source holds several entries; their conditions need not be identical. Identical values can stand only once. Like-named read-outs stand apart in the source and are kept apart here.
Assays:
[1] = biological target: T1, BuChE (EC 3.1.1.8, from equin serum) (Equus caballus, UniProt P81908); assay: biochemical; type: biochemical; details: for IC50: means ± SEM of three independent experiments, equine serum BuChE; for BuChE inhibitory activity, fold higher than donepezil: in comparison to donepezil
T1 construct: BuChE (EC 3.1.1.8, from equin serum); purchased Sigma Aldrich (Steinheim, Germany); host or cells: equine serum
T1 sequence (P81908 whole entry): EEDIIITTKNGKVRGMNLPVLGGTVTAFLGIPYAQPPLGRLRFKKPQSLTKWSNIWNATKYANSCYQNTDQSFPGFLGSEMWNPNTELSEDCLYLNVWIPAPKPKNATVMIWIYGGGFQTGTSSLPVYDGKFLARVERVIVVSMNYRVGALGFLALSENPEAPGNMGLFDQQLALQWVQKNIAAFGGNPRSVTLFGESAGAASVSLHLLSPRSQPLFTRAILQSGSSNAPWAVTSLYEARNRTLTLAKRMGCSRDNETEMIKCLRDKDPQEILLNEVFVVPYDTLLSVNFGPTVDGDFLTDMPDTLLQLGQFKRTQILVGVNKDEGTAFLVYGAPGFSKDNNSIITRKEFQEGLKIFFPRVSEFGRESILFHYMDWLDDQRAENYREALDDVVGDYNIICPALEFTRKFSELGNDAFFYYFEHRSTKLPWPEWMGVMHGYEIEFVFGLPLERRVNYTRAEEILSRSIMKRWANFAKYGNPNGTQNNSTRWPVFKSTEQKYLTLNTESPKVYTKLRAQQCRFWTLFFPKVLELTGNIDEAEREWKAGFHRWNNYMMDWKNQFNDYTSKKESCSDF
Experimental: (§2) The inhibitory activities of the tested compounds towards AChE and BuChE were performed using Ellman’s method[25]. All reagents including AChE (EC 3.1.1.7, from Electrophorus electricus), BuChE (EC 3.1.1.8, from equin serum), DTNB (Ellman’s reagent), and acetylthiocholine iodide (ATC iodide) were purchased from Sigma Aldrich (Steinheim, Germany). Analysis was executed in following procedure: AChE and BuChE solution was made by dissolving enzymes in phosphate buffer (pH 7.4) to obtain 2 and 4 U/ml, respectively. […] The study was performed in triplicate and recorded in 96-well microplates, using multifunctional microplate reader. The assay medium contained DTNB solution 0.4 mg/ml (76 µl), AChE (10 µl), various concentration of the examined compounds (14 µl) and ATC iodine solution (40 µl) at the concentration of 1 mM. For the reference value, 14 µl of the test compound solutions were replaced by phosphate buffer (pH 7.4). […] Inhibition activity was expressed as a percentage of the activity of the tested compound relative to the reference control.

[2] = biological target: T2, AChE (EC 3.1.1.7, from Electrophorus electricus) (Electrophorus electricus, UniProt O42275); assay: biochemical; type: biochemical; details: for Selectivity for AChE: IC50(BuChE)/IC50(AChE)
T2 construct: purchased Sigma Aldrich (Steinheim, Germany)
T2 sequence (O42275 24-633): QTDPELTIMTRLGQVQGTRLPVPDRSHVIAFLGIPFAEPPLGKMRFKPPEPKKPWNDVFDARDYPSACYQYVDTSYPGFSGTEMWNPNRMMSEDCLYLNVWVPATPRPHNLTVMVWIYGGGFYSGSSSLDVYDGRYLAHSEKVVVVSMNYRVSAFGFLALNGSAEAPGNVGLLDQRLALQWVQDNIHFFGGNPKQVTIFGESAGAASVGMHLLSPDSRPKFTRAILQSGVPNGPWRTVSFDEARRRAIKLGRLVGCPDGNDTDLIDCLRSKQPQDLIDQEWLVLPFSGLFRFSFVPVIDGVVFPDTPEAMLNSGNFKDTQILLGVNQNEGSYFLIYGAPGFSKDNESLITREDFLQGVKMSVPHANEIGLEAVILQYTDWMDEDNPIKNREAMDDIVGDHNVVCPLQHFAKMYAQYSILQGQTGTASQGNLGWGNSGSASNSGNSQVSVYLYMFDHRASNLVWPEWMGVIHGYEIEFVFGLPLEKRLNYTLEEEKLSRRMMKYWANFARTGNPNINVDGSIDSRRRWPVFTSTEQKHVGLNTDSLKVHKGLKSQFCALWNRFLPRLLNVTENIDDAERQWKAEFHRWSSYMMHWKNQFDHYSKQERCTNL
Experimental: as §2

[3] = biological target: T3, EqBuChE (Equus caballus, UniProt P81908); assay: Kinetic characterisation of BuChE inhibition (Lineweaver–Burk); type: biochemical; details: for Vmax: BuChE
T3 construct: BuChE (EC 3.1.1.8, from equin serum); purchased Sigma Aldrich (Steinheim, Germany); host or cells: equine serum
T3 sequence (P81908 whole entry): as the sequence (P81908 whole entry) above
Experimental: Kinetic analysis was performed using Ellman’s test[4] ^, [25]. […]. Total volume of tested medium (140 µl) comprised: DTNB solution (0.4 mg/ml), BuChE solution (4 U/ml), solution of the examined compound and different concentrations of the substrate ATC iodide. Absorbance was detected at 412 nm at room temperature after 8 min. Results were calculated and presented on the Lineweaver–Burk plot. Received KM and Vmax values allowed to define the type of enzyme inhibition.

[4] = biological target: T4, Aβ1–42 (Homo sapiens, UniProt P05067); assay: Aβ1–42 aggregation assay, Thioflavin T fluorescence; type: biochemical; details: Aβ1–42 12.58 μM, 24 h
T4 construct: final Aβ1–42 concentration – 12.58 μM
T4 sequence (P05067 672-713 limits assumed): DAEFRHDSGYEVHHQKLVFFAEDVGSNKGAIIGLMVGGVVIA
Experimental: The Aβ1–42 aggregation assay was established using the Thioflavin T fluorescence method[22] ^, [26] ^, [27]. Experiment was performed by incubating the peptides previously dissolved in DMSO at room temperature for 24 h (final Aβ1–42 concentration – 12.58 μM) with or without the tested compounds at the different concentrations (5, 10, 25, 50, and100 μM). After incubation all samples were diluted in PBS – phosphate buffer (pH 7.4) containing Thioflavin T (5 μM). Subsequently, after 5 min incubation with the dye, fluorescence signal was measured (excitation wavelength 446 nm, emission wavelength 490 nm) on a monochromator based multimode microplate reader (Synergy H1, Bio-Tek, Winooski, VT), adapted for 96-well microtiter plates. Next the percent of inhibition on aggregation was calculated by the following expression: 100 – (IFi/IFo × 100). IFi and IFo were the fluorescence intensities obtained for absorbance in the presence and absence of inhibitors, respectively. The background values were deducted in the calculations.

[5] = system: ATCC CCL-185 cell line (Epithelial cells from human lungs, carcinoma); assay: MTT cytotoxicity assay on ATCC CCL-185 cells; type: cell-based; details: 22.22 µM; 48 h
Experimental: (§1) In the experiment, ATCC CCL-185 cell line was used (Epithelial cells from human lungs, carcinoma). Cells were seeded on 96-wells plate (F12 Thermo Fisher medium, Waltham MA) and incubated for 24 h. Then the cells were treated with various concentrations (0.22, 1.11, 2.22, 22.22, and 222.20 µM) of the tested compound dissolved in methanol and incubated for 48 h. Final methanol concentration in each well was 1 µl per 100 µl of medium. As a control, the same medium as for cells breeding was used with addition of 1 µl methanol and without studied compound. As a positive control pure methanol was used. After the time of incubation, procedure was carried out according to Vybrant MTT Cell Proliferation Assay Kit: cells were labelled with 10 µl of the 12 mM MTT stock solution, incubated at 37 °C for 4 h, all medium but 25 µl was removed from the wells, 50 µl of DMSO was added, incubated for 10 min at 37 °C and the absorbance at 540 nm was measured.

[6] = MTT cytotoxicity assay on ATCC CCL-185 cells; type: cell-based, human; details: human, ATCC CCL-185 cells (human lung carcinoma epithelial cells), control as 100%, read-out: cell viability
Experimental: as §1

[7] = biological target: T5, EeAChE (Electrophorus electricus, UniProt O42275); type: biochemical; details: for Vmax: AChE
T5 construct: purchased Sigma Aldrich (Steinheim, Germany)
T5 sequence (O42275 24-633): as the sequence (O42275 24-633) above
Experimental: The kinetic characterisation was evaluated according to the Ellman’s method[4] ^, [25]. […]. The tested medium contained: DTNB solution (0.4 mg/ml), AChE solution (2 U/ml), solution of the examined compound and different concentrations of the substrate ACT iodide in a total volume of […]. Absorbance were detected at 412 nm at room temperature after 6 min. Received date were calculated and presented on the Lineweaver–Burk plot. Determinated the KM and Vmax values were used to define the type of enzyme inhibition.

[8] = biological target: T6, hyaluronidase from bovine testes Type I-S (Bos taurus, UniProt Q2YDK3); assay: Hyaluronidase inhibition test (turbidimetric); type: biochemical; details: means ± standard deviation; read-out: HYAL IC50 ± SD
T6 sequence (Q2YDK3 36-553): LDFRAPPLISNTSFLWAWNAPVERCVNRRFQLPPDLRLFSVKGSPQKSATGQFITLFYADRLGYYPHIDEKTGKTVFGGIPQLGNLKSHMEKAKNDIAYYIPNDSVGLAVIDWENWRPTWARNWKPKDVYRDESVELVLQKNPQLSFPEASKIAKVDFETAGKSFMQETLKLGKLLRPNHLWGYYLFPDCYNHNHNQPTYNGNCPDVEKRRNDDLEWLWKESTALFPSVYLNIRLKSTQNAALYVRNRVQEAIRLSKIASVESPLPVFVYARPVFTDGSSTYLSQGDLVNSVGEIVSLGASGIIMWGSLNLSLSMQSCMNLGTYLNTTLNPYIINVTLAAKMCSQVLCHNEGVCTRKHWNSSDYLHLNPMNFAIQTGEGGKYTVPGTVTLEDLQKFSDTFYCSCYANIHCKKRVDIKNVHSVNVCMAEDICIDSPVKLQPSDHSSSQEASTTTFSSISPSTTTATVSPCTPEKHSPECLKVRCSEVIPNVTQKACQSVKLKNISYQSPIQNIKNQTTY
Experimental: The inhibition study of hyaluronidase was carried out by turbidimetric method adapted to the 96-well plates and described previously by Michel et al[32] ^, [33]. […] Mixture was incubated in the dark at 37 °C for 10 min. Then, 40 µl of hyaluronic acid solution (0.03%, Sigma Aldrich, Steinheim, Germany) in monosodium phosphate buffer (pH 5.35) was added to the wells and the plate was incubated in the dark at 37 °C for 45 min. At the end, 300 µl of bovine serum albumin solution (0.1%, Serva) in sodium acetate buffer (pH 3.75) was added to the wells and incubated in the room temperature for 10 min. The changes in turbidity were measured at 600 nm by a microplate reader (BioTek, Winooski, VT). The assay was run out in three experiments in triplicate to calculate IC50 values. Heparin (WZF, Polfa) was used as a positive control.
The inhibition of hyaluronidase by the tested compound was calculated following the equation: % inhibition=100x1-AHA-AAN/AHA-AHYAL where AHA − absorbance of solution without the enzyme (positive control),
AHYAL − absorbance of solution without the tested compound (negative control), AAN − absorbance of solution with the tested compound.

[9] = means ± SEM of three independent experiments, electric eel AChE, read-out: AChE IC50 ± SEM

Cl.O=C(NCCNc1c2c(nc3ccccc13)CCC2)c1cnc(Cl)c(Cl)c1 [3a, 5,6-Dichloro-N-[2-(2,3-dihydro-1H-cyclopenta[b]quinolin-9-ylamino)-ethyl]-nicotinamide hydrochloride]
Selectivity for BuChE ([1]; IC50(AChE)/IC50(BuChE)): 0.035 | IC50 [1]: 1.86 ± 0.083 µM | Selectivity for AChE [2]: 28.593 | IC50 [2, 9]: 0.065 ± 0.007 µM

Cl.O=C(NCCCNc1c2c(nc3ccccc13)CCC2)c1cnc(Cl)c(Cl)c1 [3b, 5,6-Dichloro-N-[3-(2,3-dihydro-1H-cyclopenta[b]quinolin-9-ylamino)-propyl]-nicotinamide hydrochloride]
Selectivity for BuChE [1]: 0.330 | BuChE inhibitory activity, fold higher than donepezil [1]: 75 fold | IC50 [1]: 0.158 ± 0.029 µM | IC50 [2]: 0.052 ± 0.002 µM | Selectivity for AChE [2]: 3.030 | AChE inhibitory potency, times higher than donepezil ([2]; in comparison to donepezil): ~2 times | Vmax ([3]; inhibitor 3b 0.22 µM): 3333.3 A/min | Vmax ([3]; inhibitor 3b 0.56 µM): 1666.7 A/min | type of EqBuChE inhibition ([3]; Lineweaver–Burk plot): mixed type of inhibition | Aβ aggregation (%) ([4]; 3b 5 µM): 74.31% | Inhibition of Aβ aggregation (%) ([4]; 3b 5 µM): 25.7% and 25.69% | Aβ aggregation (%) ([4]; 3b 10 µM): 74.23% | Inhibition of Aβ aggregation (%) ([4]; 3b 10 µM): 25.77% | Aβ aggregation (%) ([4]; 3b 25 µM): 51.82% | Inhibition of Aβ aggregation (%) ([4]; 3b 25 µM): 48.18% | Aβ aggregation (%) ([4]; 3b 50 µM): 45.70% | Inhibition of Aβ aggregation (%) ([4]; 3b 50 µM): 54.30% | Aβ aggregation (%) ([4]; 3b 100 µM): 7.22% | Inhibition of Aβ aggregation (%) ([4]; 3b 100 µM): 92.8% and 92.78% | cell viability [5]: suddenly decreased | viability at 48 h, 222.2 µM ([6]; 222.20 µM): ~7% | viability at 48 h ([6]; concentrations from 0.22 to 2.22 µM): ~70% | Vmax ([7]; inhibitor 3b 0.11 µM): 312.50 A/min | Vmax ([7]; inhibitor 3b 1.11 µM): 1666.67 A/min | type of EeAChE inhibition ([7]; Lineweaver–Burk plot): mixed type of inhibition

Cl.O=C(NCCCCNc1c2c(nc3ccccc13)CCC2)c1cnc(Cl)c(Cl)c1 [3c, 5,6-Dichloro-N-[4-(2,3-dihydro-1H-cyclopenta[b]quinolin-9-ylamino)-butyl]-nicotinamide hydrochloride]
Selectivity for BuChE ([1]; IC50(AChE)/IC50(BuChE)): 0.934 | IC50 [1]: 0.797 ± 0.086 µM | Selectivity for AChE [2]: 1.071 | IC50 [2, 9]: 0.744 ± 0.046 µM

Cl.O=C(NCCCCCNc1c2c(nc3ccccc13)CCC2)c1cnc(Cl)c(Cl)c1 [3d, 5,6-Dichloro-N-[5-(2,3-dihydro-1H-cyclopenta[b]quinolin-9-ylamino)-pentyl]-nicotinamide hydrochloride]
Selectivity for BuChE ([1]; IC50(AChE)/IC50(BuChE)): 0.619 | IC50 [1]: 0.46 ± 0.038 µM | Selectivity for AChE [2]: 1.615 | IC50 [2, 9]: 0.285 ± 0.038 µM

Cl.O=C(NCCCCCCNc1c2c(nc3ccccc13)CCC2)c1cnc(Cl)c(Cl)c1 [3e, 5,6-Dichloro-N-[6-(2,3-dihydro-1H-cyclopenta[b]quinolin-9-ylamino)-hexyl]-nicotinamide hydrochloride]
Selectivity for BuChE ([1]; IC50(AChE)/IC50(BuChE)): 0.420 | IC50 [1]: 0.127 ± 0.014 µM | Selectivity for AChE [2]: 2.380 | IC50 [2, 9]: 0.053 ± 0.005 µM

Cl.O=C(NCCCCCCCNc1c2c(nc3ccccc13)CCC2)c1cnc(Cl)c(Cl)c1 [3f, 5,6-Dichloro-N-[7-(2,3-dihydro-1H-cyclopenta[b]quinolin-9-ylamino)-heptyl]-nicotinamide hydrochloride]
Selectivity for BuChE ([1]; IC50(AChE)/IC50(BuChE)): 1.756 | BuChE inhibitory activity, fold higher than donepezil [1]: 167 fold | IC50 [1]: 0.071 ± 0.012 µM | Selectivity for AChE [2]: 0.569 | IC50 [2, 9]: 0.125 ± 0.021 µM

Cl.O=C(NCCCCCCCCNc1c2c(nc3ccccc13)CCC2)c1cnc(Cl)c(Cl)c1 [3g, 5,6-Dichloro-N-[8-(2,3-dihydro-1H-cyclopenta[b]quinolin-9-ylamino)-octyl]-nicotinamide hydrochloride]
Selectivity for BuChE ([1]; IC50(AChE)/IC50(BuChE)): 1.407 | IC50 [1]: 0.108 ± 0.006 µM | Selectivity for AChE [2]: 0.711 | IC50 [2, 9]: 0.152 ± 0.045 µM

Cl.O=C(NCCCCCCCCCNc1c2c(nc3ccccc13)CCC2)c1cnc(Cl)c(Cl)c1 [3h, 5,6-Dichloro-N-[9-(2,3-dihydro-1H-cyclopenta[b]quinolin-9-ylamino)-nonyl]-nicotinamide hydrochloride]
Selectivity for BuChE ([1]; IC50(AChE)/IC50(BuChE)): 1.889 | IC50 [1]: 0.082 ± 0.03 µM | Selectivity for AChE [2]: 0.529 | IC50 [2, 9]: 0.155 ± 0.045 µM

Heparin
IC50 [8]: 56.4 ± 0.78 µM
